Laboratory results from patent publication US9249129B2, “Morpholino substituted urea derivatives as mTOR inhibitors” (CELLZOME LIMITED, priority 2010, dated 2016).

How the values were obtained:
Assay in all cases: kinobeads assay with mass spectrometry detection of kinases (kinase selectivity profile)
Type in all cases: binding
kinases (kinome) [1] = target: T1, kinases (kinome) (Homo sapiens, UniProt P42680); conditions: TEC (TK), IPI00000878
T1 construct: determined in kinobeads assays with mass spectrometry detection of kinases as described previously; endogenous in cells; host or cells: cell lysate
T1 sequence (P42680 1-631): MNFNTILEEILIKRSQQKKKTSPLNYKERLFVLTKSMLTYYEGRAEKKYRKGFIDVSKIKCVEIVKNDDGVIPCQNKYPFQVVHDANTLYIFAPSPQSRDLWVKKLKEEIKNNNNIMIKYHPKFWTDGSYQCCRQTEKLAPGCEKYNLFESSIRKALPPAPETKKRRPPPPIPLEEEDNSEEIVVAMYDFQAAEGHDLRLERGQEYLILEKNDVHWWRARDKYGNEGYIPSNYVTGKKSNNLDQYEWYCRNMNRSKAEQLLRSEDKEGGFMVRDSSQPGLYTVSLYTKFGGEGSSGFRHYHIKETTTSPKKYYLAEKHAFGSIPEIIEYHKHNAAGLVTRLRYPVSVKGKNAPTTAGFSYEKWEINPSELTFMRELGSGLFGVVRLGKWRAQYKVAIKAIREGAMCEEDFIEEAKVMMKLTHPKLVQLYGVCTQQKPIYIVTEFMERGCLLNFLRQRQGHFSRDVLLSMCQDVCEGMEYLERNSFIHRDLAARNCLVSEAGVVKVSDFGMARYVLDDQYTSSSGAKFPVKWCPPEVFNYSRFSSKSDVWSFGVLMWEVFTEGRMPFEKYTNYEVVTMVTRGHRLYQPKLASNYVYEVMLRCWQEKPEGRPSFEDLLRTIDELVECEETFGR
Text: (§1) The protein kinase complement of the human genome (the kinome) was described previously (Manning et al., 2002. Science 298(5600):1912-1934). Sequence accession numbers are defined by the International Protein Index (IPI) (Kersey et al., 2004. Proteomics 4(7):1985-1988).

kinases (kinome) [2] = target: T2, kinases (kinome) (Homo sapiens, UniProt Q9Y4K4); conditions: KHS1 (STE), IPI00294842
T2 construct: determined in kinobeads assays with mass spectrometry detection of kinases as described previously; endogenous in cells; host or cells: cell lysate
Text: as §1

kinases (kinome) [3] = target: T3, kinases (kinome) (Homo sapiens, UniProt O14965); conditions: AurA (Other), IPI00298940
T3 construct: determined in kinobeads assays with mass spectrometry detection of kinases as described previously; endogenous in cells; host or cells: cell lysate
T3 sequence (O14965 1-403): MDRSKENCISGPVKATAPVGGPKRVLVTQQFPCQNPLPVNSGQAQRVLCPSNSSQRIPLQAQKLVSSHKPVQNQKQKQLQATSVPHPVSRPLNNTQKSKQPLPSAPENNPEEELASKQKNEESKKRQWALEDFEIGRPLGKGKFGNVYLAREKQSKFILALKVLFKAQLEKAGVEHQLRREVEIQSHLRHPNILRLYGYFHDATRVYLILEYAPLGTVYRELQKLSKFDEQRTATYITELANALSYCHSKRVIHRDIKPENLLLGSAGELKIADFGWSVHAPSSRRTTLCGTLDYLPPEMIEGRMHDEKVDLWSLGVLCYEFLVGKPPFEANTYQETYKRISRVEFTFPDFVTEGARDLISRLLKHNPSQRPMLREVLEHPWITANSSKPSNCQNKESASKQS
Text: as §1

kinases (kinome) [4] = target: T4, kinases (kinome) (Homo sapiens, UniProt P05771); conditions: PKCb (AGC), IPI00219628
T4 construct: determined in kinobeads assays with mass spectrometry detection of kinases as described previously; endogenous in cells; host or cells: cell lysate
Text: as §1

kinases (kinome) [5] = target: T5, kinases (kinome) (Homo sapiens, UniProt Q04759); conditions: PKCt (AGC), IPI00029196
T5 construct: determined in kinobeads assays with mass spectrometry detection of kinases as described previously; endogenous in cells; host or cells: cell lysate
Text: as §1

kinases (kinome) [6] = target: T6, kinases (kinome) (Homo sapiens, UniProt P42684); conditions: ARG (TK), IPI00329488
T6 construct: determined in kinobeads assays with mass spectrometry detection of kinases as described previously; endogenous in cells; host or cells: cell lysate
Text: as §1

kinases (kinome) [7] = target: T7, kinases (kinome) (Homo sapiens, UniProt Q12851); conditions: GCK (STE), IPI00149094
T7 construct: determined in kinobeads assays with mass spectrometry detection of kinases as described previously; endogenous in cells; host or cells: cell lysate
T7 sequence (Q12851 1-820): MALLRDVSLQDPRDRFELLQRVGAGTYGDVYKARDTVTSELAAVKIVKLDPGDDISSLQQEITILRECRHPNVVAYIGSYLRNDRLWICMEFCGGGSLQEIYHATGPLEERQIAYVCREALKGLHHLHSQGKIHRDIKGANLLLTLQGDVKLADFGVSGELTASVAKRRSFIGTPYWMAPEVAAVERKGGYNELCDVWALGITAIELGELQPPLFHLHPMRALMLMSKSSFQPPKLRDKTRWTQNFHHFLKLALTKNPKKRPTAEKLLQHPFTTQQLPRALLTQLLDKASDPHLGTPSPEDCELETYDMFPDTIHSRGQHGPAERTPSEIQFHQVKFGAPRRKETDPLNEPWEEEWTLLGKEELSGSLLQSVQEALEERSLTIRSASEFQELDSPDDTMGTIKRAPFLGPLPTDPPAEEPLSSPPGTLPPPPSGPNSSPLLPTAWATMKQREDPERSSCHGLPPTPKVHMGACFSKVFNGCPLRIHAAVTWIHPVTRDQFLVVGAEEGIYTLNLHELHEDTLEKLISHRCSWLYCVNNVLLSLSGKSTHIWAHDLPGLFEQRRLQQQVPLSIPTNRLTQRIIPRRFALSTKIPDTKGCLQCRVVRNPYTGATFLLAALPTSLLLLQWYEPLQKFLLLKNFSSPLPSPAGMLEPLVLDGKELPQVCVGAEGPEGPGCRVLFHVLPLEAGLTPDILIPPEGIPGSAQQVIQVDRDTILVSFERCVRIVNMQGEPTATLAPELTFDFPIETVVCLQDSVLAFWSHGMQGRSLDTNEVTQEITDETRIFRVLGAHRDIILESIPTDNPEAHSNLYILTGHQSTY
Text: as §1

kinases (kinome) [8] = target: T8, kinases (kinome) (Homo sapiens, UniProt Q6PHR2); conditions: ULK3 (Other), IPI00910978
T8 construct: determined in kinobeads assays with mass spectrometry detection of kinases as described previously; endogenous in cells; host or cells: cell lysate
T8 sequence (Q6PHR2 1-472): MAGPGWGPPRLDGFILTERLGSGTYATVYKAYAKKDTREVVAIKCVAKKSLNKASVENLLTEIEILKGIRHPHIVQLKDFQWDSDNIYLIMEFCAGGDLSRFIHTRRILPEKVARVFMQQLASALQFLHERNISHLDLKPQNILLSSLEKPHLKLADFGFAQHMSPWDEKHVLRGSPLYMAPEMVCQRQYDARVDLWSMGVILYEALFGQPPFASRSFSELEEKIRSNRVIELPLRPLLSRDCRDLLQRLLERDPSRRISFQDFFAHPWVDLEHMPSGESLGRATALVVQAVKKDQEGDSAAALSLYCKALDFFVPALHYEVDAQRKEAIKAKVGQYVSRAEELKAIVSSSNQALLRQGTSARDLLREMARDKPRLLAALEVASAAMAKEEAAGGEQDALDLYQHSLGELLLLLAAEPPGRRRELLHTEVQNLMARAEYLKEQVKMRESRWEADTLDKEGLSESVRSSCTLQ
Text: as §1

kinases (kinome) [9] = target: T9, kinases (kinome) (Homo sapiens, UniProt Q9BQI3); conditions: HRI (Other), IPI00328149
T9 construct: determined in kinobeads assays with mass spectrometry detection of kinases as described previously; endogenous in cells; host or cells: cell lysate
Text: as §1

Measured: IC50

T6 sequence (P42684 whole entry): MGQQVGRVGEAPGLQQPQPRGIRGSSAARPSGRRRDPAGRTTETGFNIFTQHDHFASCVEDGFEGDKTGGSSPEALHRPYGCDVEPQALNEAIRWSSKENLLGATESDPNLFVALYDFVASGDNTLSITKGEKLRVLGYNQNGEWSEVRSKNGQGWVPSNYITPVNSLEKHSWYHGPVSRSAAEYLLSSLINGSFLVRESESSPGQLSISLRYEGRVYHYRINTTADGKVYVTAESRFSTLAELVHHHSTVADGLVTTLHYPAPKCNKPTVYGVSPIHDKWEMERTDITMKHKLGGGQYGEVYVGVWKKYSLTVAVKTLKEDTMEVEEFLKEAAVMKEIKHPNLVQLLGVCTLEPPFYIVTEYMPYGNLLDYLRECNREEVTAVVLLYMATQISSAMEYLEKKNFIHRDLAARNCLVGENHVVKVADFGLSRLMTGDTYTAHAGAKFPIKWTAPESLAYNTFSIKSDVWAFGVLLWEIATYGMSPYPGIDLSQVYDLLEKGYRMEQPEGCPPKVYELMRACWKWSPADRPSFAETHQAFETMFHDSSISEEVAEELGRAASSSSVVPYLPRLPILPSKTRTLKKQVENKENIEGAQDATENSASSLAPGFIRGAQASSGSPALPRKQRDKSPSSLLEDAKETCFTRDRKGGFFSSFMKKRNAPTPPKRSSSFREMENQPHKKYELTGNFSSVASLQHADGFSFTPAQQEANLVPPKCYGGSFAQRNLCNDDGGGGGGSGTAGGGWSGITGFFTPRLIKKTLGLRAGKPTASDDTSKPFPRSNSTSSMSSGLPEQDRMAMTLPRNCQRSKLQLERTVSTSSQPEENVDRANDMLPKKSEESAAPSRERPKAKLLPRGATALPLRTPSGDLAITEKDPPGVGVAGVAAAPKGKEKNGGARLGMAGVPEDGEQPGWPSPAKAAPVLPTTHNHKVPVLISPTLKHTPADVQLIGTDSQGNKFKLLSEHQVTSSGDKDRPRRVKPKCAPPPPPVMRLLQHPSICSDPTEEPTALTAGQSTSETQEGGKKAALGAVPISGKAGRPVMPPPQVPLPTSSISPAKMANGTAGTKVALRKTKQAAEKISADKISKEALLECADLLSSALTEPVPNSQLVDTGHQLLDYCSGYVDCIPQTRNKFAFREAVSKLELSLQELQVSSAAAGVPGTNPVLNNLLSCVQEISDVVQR
T5 sequence (Q04759 whole entry): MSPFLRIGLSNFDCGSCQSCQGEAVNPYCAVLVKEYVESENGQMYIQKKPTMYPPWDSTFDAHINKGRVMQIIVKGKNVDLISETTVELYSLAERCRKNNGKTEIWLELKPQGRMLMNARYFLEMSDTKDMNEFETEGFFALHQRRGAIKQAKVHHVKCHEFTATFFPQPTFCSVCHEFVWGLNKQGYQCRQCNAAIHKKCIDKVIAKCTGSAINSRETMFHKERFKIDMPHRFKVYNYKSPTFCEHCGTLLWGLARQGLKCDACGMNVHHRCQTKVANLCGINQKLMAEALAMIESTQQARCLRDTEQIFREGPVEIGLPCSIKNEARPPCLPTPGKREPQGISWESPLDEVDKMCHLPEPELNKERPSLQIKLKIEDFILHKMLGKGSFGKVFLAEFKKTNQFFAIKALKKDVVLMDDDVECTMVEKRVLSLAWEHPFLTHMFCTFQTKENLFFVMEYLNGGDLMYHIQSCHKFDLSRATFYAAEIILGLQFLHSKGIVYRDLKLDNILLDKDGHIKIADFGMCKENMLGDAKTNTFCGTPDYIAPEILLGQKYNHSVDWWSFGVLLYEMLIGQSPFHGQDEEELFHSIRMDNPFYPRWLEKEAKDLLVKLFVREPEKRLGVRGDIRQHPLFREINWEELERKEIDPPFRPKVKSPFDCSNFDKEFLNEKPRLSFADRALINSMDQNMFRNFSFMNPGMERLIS
T2 sequence (Q9Y4K4 whole entry): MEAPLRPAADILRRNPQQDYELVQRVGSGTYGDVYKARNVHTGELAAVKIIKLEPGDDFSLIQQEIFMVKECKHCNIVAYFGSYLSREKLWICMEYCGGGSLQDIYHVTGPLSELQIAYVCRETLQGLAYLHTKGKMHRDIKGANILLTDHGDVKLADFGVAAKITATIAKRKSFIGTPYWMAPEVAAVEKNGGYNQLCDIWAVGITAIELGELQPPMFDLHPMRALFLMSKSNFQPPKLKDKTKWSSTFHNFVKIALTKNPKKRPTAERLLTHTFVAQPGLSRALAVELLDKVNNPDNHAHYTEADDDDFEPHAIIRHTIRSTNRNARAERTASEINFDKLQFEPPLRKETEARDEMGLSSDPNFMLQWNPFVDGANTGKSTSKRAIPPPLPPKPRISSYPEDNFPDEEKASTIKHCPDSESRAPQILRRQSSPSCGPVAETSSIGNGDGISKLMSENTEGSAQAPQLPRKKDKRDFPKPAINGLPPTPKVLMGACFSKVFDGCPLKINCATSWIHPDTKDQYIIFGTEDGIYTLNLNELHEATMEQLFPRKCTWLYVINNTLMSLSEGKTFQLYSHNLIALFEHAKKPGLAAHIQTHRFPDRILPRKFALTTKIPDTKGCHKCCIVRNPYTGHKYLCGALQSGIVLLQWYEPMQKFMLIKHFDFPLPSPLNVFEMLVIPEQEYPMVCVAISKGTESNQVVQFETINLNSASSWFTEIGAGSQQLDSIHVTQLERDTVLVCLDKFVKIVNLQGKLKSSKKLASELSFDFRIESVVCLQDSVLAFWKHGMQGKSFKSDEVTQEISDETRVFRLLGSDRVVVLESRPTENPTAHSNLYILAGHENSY
T9 sequence (Q9BQI3 whole entry): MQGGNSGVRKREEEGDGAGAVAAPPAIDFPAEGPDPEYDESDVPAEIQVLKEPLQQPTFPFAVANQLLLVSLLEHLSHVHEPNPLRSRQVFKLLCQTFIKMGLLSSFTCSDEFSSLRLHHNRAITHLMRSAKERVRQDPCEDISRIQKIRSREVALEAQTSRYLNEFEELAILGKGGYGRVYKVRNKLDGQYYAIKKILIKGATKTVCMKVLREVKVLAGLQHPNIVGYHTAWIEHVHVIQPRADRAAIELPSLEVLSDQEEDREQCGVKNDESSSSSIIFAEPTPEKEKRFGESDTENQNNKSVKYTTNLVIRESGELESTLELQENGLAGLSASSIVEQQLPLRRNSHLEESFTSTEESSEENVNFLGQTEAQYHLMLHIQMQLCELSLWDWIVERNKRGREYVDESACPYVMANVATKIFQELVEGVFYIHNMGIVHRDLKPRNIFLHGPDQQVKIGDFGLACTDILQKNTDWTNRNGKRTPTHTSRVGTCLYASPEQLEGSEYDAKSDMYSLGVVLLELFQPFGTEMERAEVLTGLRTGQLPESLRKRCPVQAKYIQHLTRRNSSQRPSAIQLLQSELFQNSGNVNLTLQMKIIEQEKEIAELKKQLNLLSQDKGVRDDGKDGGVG
T4 sequence (P05771 whole entry): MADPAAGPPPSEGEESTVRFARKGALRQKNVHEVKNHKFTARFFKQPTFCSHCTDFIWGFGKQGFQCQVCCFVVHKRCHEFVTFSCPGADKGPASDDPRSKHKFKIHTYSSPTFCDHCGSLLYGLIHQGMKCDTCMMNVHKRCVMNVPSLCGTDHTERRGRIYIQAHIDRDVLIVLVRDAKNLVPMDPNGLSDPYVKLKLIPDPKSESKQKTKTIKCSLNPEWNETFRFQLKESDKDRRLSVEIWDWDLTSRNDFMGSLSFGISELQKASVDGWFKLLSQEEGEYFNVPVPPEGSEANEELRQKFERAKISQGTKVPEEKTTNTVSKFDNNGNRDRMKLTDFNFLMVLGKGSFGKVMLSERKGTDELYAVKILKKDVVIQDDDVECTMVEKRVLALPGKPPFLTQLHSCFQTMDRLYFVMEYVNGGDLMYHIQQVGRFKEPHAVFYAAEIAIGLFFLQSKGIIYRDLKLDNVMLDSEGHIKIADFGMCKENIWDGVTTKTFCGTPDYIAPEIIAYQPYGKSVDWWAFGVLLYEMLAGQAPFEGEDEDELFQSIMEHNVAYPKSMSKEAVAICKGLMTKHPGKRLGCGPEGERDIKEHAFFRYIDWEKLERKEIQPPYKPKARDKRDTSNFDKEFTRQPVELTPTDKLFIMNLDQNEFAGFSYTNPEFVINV

C[C@H]1COCCN1c1nc(-c2ccc(NC(=O)NC3CC3)cc2)cc(-c2ccccc2S(C)(=O)=O)n1 [Example 4, (S)-1-cyclopropyl-3-(4-(2-(3-methylmorpholino)-6-(2-(methylsulfonyl)phenyl)pyrimidin-4-yl)phenyl)urea]
> 10 µM: all assays above

C[C@H]1COCCN1c1cc(-c2ccccc2S(C)(=O)=O)nc(-c2ccc(NC(=O)NC3CC3)cc2)n1 [Example 6, (S)-1-cyclopropyl-3-(4-(4-(3-methylmorpholino)-6-(2-(methylsulfonyl)phenyl)pyrimidin-2-yl)phenyl)urea]
not listed: kinases (kinome) [9]
> 10 µM: all other assays above

CCNC(=O)Nc1ccc(-c2cc(-c3ccccc3C#N)nc(N3CCOC[C@@H]3C)n2)cc1 [Example 8, (S)-1-(4-(6-(2-cyanophenyl)-2-(3-methylmorpholino)pyrimidin-4-yl)phenyl)-3-ethylurea]
> 10 µM: all assays above

C[C@H]1COCCN1c1nc(-c2ccc(NC(=O)NC3CC3)cc2)cc(-c2cc(F)ccc2S(C)(=O)=O)n1 [Example 40, (S)-1-cyclopropyl-3-(4-(6-(5-fluoro-2-(methylsulfonyl)phenyl)-2-(3-methylmorpholino)pyrimidin-4-yl)phenyl)urea]
> 10 µM: all assays above

C[C@H]1COCCN1c1cc(-c2ccccn2)nc(-c2ccc(NC(=O)NCCO)cc2)n1 [Example 43, (S)-1-(2-hydroxyethyl)-3-(4-(4-(3-methylmorpholino)-6-(pyridin-2-yl)pyrimidin-2-yl)phenyl)urea]
> 10 µM: all assays above

C[C@H]1COCCN1c1nc(-c2ccc(NC(=O)NC3CC3)cc2)cc(-c2cccnc2S(C)(=O)=O)n1 [Example 46, (S)-1-cyclopropyl-3-(4-(2-(3-methylmorpholino)-6-(2-(methylsulfonyl)pyridin-3-yl)pyrimidin-4-yl)phenyl)urea]
> 10 µM: all assays above

C[C@H]1COCCN1c1nc(-c2ccc(NC(=O)N[C@H]3CCC[C@@H]3O)cc2)cc(-c2cc(F)ccc2S(C)(=O)=O)n1 [Example 76, 1-(4-(6-(5-fluoro-2-(methylsulfonyl)phenyl)-2-((S)-3-methylmorpholino)pyrimidin-4-yl)phenyl)-3-((1S,2S)-2-hydroxycyclopentyl)urea]
> 10 µM: all assays above
